# Results published in PubChem BioAssay AID248 (DTP/NCI, 2004).
# Several values for one entry are separate records, joined by “and”; a condition that tells them apart may be missing. Equal values may be shown once. Toxic doses and inconclusive results are not listed.
# Tested on: L1210 leukemia ip in BDF1 mice, survival T/C
# Assay: NCI In Vivo Anticancer Drug Screen. Data for tumor model L1210 Leukemia (intraperitoneal) in B6D2F1 (BDF1) mice
# Settings: endpoint: mean survival time, higher = longer survival
# How it was run: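 Tumor cells were implanted, animals were treated, and survival was followed. The result divides the treated measurement by the vehicle-control measurement.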
# [1] = dose: 100.0 mg/kg/injection, schedule: Q01DX001 (ip), vehicle: saline
# [2] = dose: 400.0 mg/kg/injection, schedule: Q01DX001 (ip), vehicle: saline
# [3] = dose: 100.0 mg/kg/injection, schedule: Q01DX009 (ip), vehicle: Klucel (hydroxypropylcellulose) (HPC)
# [4] = dose: 200.0 mg/kg/injection, schedule: Q01DX009 (ip), vehicle: Klucel (hydroxypropylcellulose) (HPC)
# [5] = dose: 400.0 mg/kg/injection, schedule: Q01DX009 (ip), vehicle: Klucel (hydroxypropylcellulose) (HPC)
# [6] = dose: 100.0 mg/kg/injection, schedule: Q04DX003 (ip), vehicle: Klucel (hydroxypropylcellulose) (HPC)
# [7] = dose: 200.0 mg/kg/injection, schedule: Q04DX003 (ip), vehicle: Klucel (hydroxypropylcellulose) (HPC)
# [8] = dose: 400.0 mg/kg/injection, schedule: Q04DX003 (ip), vehicle: Klucel (hydroxypropylcellulose) (HPC)
# [9] = dose: 100.0 mg/kg/injection, schedule: Q04DX003 (ip), vehicle: saline with Tween-80
# [10] = dose: 200.0 mg/kg/injection, schedule: Q04DX003 (ip), vehicle: saline with Tween-80
# [11] = dose: 400.0 mg/kg/injection, schedule: Q04DX003 (ip), vehicle: saline with Tween-80
smiles,measurement,setting,value
CCN(CCO)CC(C)Nc1ccc([N+](=O)[O-])c2sc3ccccc3c(=O)c12 (configuration not stated),T/C,"dose: 1.5 mg/kg/injection, schedule: Q01DX Z (ip), vehicle: carboxymethylcellulose (CMC)",96 % of control
same,T/C,"dose: 3.0 mg/kg/injection, schedule: Q01DX Z (ip), vehicle: carboxymethylcellulose (CMC)",107 % of control
same,T/C,"dose: 3.5 mg/kg/injection, schedule: Q01DX Z (ip), vehicle: saline",101 % of control
same,T/C,"dose: 5.3 mg/kg/injection, schedule: Q01DX Z (ip), vehicle: saline",115 % of control
same,T/C,"dose: 6.0 mg/kg/injection, schedule: Q01DX Z (ip), vehicle: carboxymethylcellulose (CMC)",100 % of control
same,T/C,"dose: 8.0 mg/kg/injection, schedule: Q01DX Z (ip), vehicle: saline",104 % of control
same,T/C,"dose: 10.0 mg/kg/injection, schedule: Q01DX Z (ip), vehicle: other",107 % of control
same,T/C,"dose: 12.0 mg/kg/injection, schedule: Q01DX Z (ip), vehicle: carboxymethylcellulose (CMC)",110 % of control
same,T/C,"dose: 12.0 mg/kg/injection, schedule: Q01DX Z (ip), vehicle: saline",105 % of control and 89 % of control
same,T/C,"dose: 18.0 mg/kg/injection, schedule: Q01DX Z (ip), vehicle: saline",91 % of control
same,T/C,"dose: 30.0 mg/kg/injection, schedule: Q01DX Z (ip), vehicle: other",156 % of control
same,T/C,"dose: 40.0 mg/kg/injection, schedule: Q01DX Z (ip), vehicle: saline",166 % of control
same,T/C,"dose: 60.0 mg/kg/injection, schedule: Q01DX Z (ip), vehicle: saline",104 % of control
same,T/C,"dose: 90.0 mg/kg/injection, schedule: Q01DX Z (ip), vehicle: other",121 % of control
same,T/C,"dose: 90.0 mg/kg/injection, schedule: Q01DX Z (ip), vehicle: saline",89 % of control
same,T/C,"dose: 91.5 mg/kg/injection, schedule: Q01DX Z (ip), vehicle: saline",160 % of control
same,T/C,[1],114 % of control
same,T/C,"dose: 137.0 mg/kg/injection, schedule: Q01DX Z (ip), vehicle: saline",124 % of control
same,T/C,[2],167 % of control and 175 % of control
O=S(=O)(O)c1cc(Cl)c(O)c(Cl)c1,T/C,[3],95 % of control
same,T/C,[4],102 % of control
same,T/C,[5],106 % of control
CC(=O)c1ccc(NC(=O)c2ccc(C(=O)Nc3ccc(C(C)=O)cc3)cc2)cc1,T/C,[1],100 % of control
same,T/C,"dose: 200.0 mg/kg/injection, schedule: Q01DX001 (ip), vehicle: saline",96 % of control
same,T/C,[2],102 % of control
OC1(C#CC2(O)c3ccccc3-c3ccccc32)c2ccccc2-c2ccccc21,T/C,[3],93 % of control
same,T/C,[6],106 % of control
same,T/C,[4],97 % of control
same,T/C,[7],106 % of control
same,T/C,[5],93 % of control
same,T/C,[8],100 % of control
C/C(=N/OC(=O)N(C)C)c1ccc(Cl)c(Cl)c1,T/C,"dose: 100.0 mg/kg/injection, schedule: Q01DX001 (ip), vehicle: other",96 % of control
same,T/C,"dose: 200.0 mg/kg/injection, schedule: Q01DX001 (ip), vehicle: other",98 % of control
O=NN(CCCl)C(=O)Nc1ccc2c(c1)Cc1ccccc1-2,T/C,"dose: 10.0 mg/kg/injection, schedule: Q01DX009 (ip), vehicle: other",156 % of control
same,T/C,"dose: 20.0 mg/kg/injection, schedule: Q01DX009 (ip), vehicle: other",167 % of control
same,T/C,"dose: 40.0 mg/kg/injection, schedule: Q01DX009 (ip), vehicle: other",113 % of control
same,T/C,"dose: 44.0 mg/kg/injection, schedule: Q01DX009 (ip), vehicle: carboxymethylcellulose (CMC)",164 % of control
same,T/C,"dose: 66.0 mg/kg/injection, schedule: Q01DX009 (ip), vehicle: carboxymethylcellulose (CMC)",208 % of control
same,T/C,"dose: 100.0 mg/kg/injection, schedule: Q01DX009 (ip), vehicle: carboxymethylcellulose (CMC)",175 % of control
same,T/C,"dose: 150.0 mg/kg/injection, schedule: Q01DX009 (ip), vehicle: carboxymethylcellulose (CMC)",96 % of control
same,T/C,"dose: 300.0 mg/kg/injection, schedule: Q01DX001 (ip), vehicle: carboxymethylcellulose (CMC)",102 % of control
O=S1(=O)N=C(Cl)c2ccccc21,T/C,"dose: 50.0 mg/kg/injection, schedule: Q04DX003 (ip), vehicle: Klucel (hydroxypropylcellulose) (HPC)",105 % of control
same,T/C,[6],108 % of control
same,T/C,[7],97 % of control
COP(=O)(NNc1cc(Cl)ccc1Cl)OC,T/C,[9],104 % of control
same,T/C,[10],106 % of control
same,T/C,[11],101 % of control
Cn1nc(C(=O)O)c2c(N)ncnc21,T/C,"dose: 50.0 mg/kg/injection, schedule: Q04DX002 (ip), vehicle: saline",103 % of control
same,T/C,"dose: 100.0 mg/kg/injection, schedule: Q04DX002 (ip), vehicle: saline",95 % of control
same,T/C,"dose: 200.0 mg/kg/injection, schedule: Q04DX002 (ip), vehicle: saline",98 % of control
CC1(CCBr)NC(=O)NC1=O (configuration not stated),T/C,[3],121 % of control
same,T/C,[6],98 % of control
same,T/C,[4],101 % of control
same,T/C,[7],119 % of control
same,T/C,[5],95 % of control
same,T/C,[8],107 % of control
Nc1nc(N)c2cc(S(=O)(=O)c3ccc4ccccc4c3)ccc2n1,T/C,[3],91 % of control
same,T/C,[6],98 % of control
same,T/C,[4],94 % of control
same,T/C,[7],96 % of control
same,T/C,[8],98 % of control
Nc1ccc(C(=O)O)cc1,T/C,[6],96 % of control
same,T/C,[7],106 % of control
same,T/C,[8],113 % of control
O=C(NC(=S)Nc1cccc(O)c1)c1ccco1,T/C,"dose: 100.0 mg/kg/injection, schedule: Q01DX009 (ip), vehicle: saline with Tween-80",98 % of control
same,T/C,[9],104 % of control
same,T/C,"dose: 200.0 mg/kg/injection, schedule: Q01DX009 (ip), vehicle: saline with Tween-80",115 % of control
same,T/C,[10],107 % of control
same,T/C,"dose: 400.0 mg/kg/injection, schedule: Q01DX009 (ip), vehicle: saline with Tween-80",95 % of control
same,T/C,[11],102 % of control
O=C1c2ccccc2C(=O)c2c1cccc2N1CCOCC1,T/C,"dose: 200.0 mg/kg/injection, schedule: Q04DX002 (ip), vehicle: Klucel (hydroxypropylcellulose) (HPC)",98 % of control
same,T/C,"dose: 400.0 mg/kg/injection, schedule: Q04DX002 (ip), vehicle: Klucel (hydroxypropylcellulose) (HPC)",112 % of control
